Data taken from patent US9840513B2 (AbbVie S.à.r.l., priority 2015, dated 2017).
pEC50: −log10 of the molar value.

Molecular target: T1, F508delCFTR cell surface expression in CFBE41o-F508delCFTR-HRP cells (Homo sapiens, UniProt P13569, DEL508-508)
T1 construct: fused on or other part: Horseradish peroxidase (HRP) reporter inserted in the fourth exofacial (extracellular) loop of CFTR; expression is doxycycline-inducible
Experiment: Cell Surface Expression-Horse Radish Peroxidase (CSE-HRP) Assay
Type: cell-based
Conditions: for pEC50: CFBE41o-F508delCFTR-HRP cells, 18-24 hours at 33° C., 8-point curve, highest concentration 20 μM; for Maximum % activity (%): maximum at any tested concentration, normalized to on-plate positive control (3 μM)
Outline: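 Correctors incubated 18-24 h at 33 °C on doxycycline-induced (0.5 μg/mL, 72 h) CFBE41o-F508delCFTR-HRP cells, 3-fold series from 20 μM. After DPBS washes, luminol luminescence read; activity expressed relative to DMSO and a 3 μM positive control, EC50 fitted from triplicate plates.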

T1 sequence (P13569 with tags, fused parts or gaps DEL508-508 limits assumed): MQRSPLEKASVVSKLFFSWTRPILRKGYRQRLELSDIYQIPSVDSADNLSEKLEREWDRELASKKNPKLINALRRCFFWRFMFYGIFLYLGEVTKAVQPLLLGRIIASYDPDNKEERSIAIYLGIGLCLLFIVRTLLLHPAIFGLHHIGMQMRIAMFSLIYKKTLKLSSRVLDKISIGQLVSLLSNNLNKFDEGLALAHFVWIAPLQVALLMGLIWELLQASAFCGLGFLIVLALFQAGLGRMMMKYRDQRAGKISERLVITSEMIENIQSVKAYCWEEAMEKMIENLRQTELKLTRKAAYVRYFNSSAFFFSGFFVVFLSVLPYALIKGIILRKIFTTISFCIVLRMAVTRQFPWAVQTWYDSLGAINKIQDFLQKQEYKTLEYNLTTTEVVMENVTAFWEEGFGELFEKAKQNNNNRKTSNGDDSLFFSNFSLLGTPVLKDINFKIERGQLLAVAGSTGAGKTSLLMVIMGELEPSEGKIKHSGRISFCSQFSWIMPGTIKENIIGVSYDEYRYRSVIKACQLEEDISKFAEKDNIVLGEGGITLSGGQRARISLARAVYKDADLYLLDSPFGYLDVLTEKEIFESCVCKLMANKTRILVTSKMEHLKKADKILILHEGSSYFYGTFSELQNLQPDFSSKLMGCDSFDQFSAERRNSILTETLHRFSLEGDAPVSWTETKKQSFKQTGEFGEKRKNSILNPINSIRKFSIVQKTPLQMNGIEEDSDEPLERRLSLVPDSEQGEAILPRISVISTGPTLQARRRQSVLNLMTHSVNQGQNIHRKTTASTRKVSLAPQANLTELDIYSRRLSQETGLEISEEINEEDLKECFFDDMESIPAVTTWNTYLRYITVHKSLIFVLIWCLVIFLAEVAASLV
T1 sequence (P13569 919-1480 limits assumed, stated change not applied): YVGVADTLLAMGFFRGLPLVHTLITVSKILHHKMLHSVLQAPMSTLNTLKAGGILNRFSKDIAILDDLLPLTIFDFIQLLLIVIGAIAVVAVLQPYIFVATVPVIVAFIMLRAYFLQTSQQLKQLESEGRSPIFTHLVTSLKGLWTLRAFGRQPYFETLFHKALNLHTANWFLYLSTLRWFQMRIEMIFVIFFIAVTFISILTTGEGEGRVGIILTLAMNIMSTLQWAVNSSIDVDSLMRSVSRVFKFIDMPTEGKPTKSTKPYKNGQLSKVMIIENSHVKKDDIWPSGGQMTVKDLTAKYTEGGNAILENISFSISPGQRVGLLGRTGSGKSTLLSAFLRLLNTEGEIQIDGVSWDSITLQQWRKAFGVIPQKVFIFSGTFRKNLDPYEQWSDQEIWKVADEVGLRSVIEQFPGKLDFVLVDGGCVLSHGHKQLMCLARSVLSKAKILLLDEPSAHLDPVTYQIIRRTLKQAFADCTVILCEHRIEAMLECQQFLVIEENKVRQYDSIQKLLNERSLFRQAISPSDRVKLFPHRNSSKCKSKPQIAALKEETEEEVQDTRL

| SMILES | pEC50 | Maximum % activity (%) |
| --- | --- | --- |
| CC1(C)OC[C@H]([C@@H](O)Cn2nc(-c3ccccc3)cc(NC(=O)[C@@]3(C)COc4cc5c(cc43)OC(F)(F)O5)c2=O)O1 [Example 104, (7R)—N-(2-{(2S)-2-[(4R)-2,2-dimethyl-1,3-dioxolan-4-yl]-2-hydroxyethyl}-3-oxo-6-phenyl-2,3-dihydropyridazin-4-yl)-2,2-difluoro-7-methyl-6,7-dihydro-2H-furo[2,3-f][1,3]benzodioxole-7-carboxamide] | < 4.70 | 16% |
| C[C@]1(C(=O)Nc2cc(-c3ccccc3)nn(C[C@H](O)[C@H](O)CO)c2=O)COc2cc3c(cc21)OC(F)(F)O3 [Example 105, (7R)-2,2-difluoro-7-methyl-N-{3-oxo-6-phenyl-2-[(2S,3R)-2,3,4-trihydroxybutyl]-2,3-dihydropyridazin-4-yl}-6,7-dihydro-2H-furo[2,3-f][1,3]benzodioxole-7-carboxamide] | < 4.70 | 5% |
| CC1(C)OC[C@H]([C@H](O)Cn2nc(-c3ccccc3)cc(NC(=O)[C@@]3(C)COc4cc5c(cc43)OC(F)(F)O5)c2=O)O1 [Example 106, (7R)—N-(2-{(2R)-2-[(4R)-2,2-dimethyl-1,3-dioxolan-4-yl]-2-hydroxyethyl}-3-oxo-6-phenyl-2,3-dihydropyridazin-4-yl)-2,2-difluoro-7-methyl-6,7-dihydro-2H-furo[2,3-f][1,3]benzodioxole-7-carboxamide] | 4.85 | 18% |
| CN1CC2CN(c3cccc(NC(=O)C4(C)COc5cc6c(cc54)OC(F)(F)O6)n3)CC2C1 (stereo not drawn) [Example 107, 2,2-difluoro-7-methyl-N-[6-(5-methylhexahydropyrrolo[3,4-c]pyrrol-2(1H)-yl)pyridin-2-yl]-6,7-dihydro-2H-furo[2,3-f][1,3]benzodioxole-7-carboxamide] | 5.52 | 136% |
| CC(C)CN1CC2CN(c3cccc(NC(=O)C4(C)COc5cc6c(cc54)OC(F)(F)O6)n3)CC2C1 (stereo not drawn) [Example 108, 2,2-difluoro-7-methyl-N-{6-[5-(2-methylpropyl)hexahydropyrrolo[3,4-c]pyrrol-2(1H)-yl]pyridin-2-yl}-6,7-dihydro-2H-furo[2,3-f][1,3]benzodioxole-7-carboxamide] | 5.70 | 89% |
| C[C@]1(C(=O)Nc2cccc(N3CC[C@@H](S(C)(=O)=O)C3)n2)COc2cc3c(cc21)OC(F)(F)O3 [Example 111, (7R)-2,2-difluoro-N-{6-[(3R)-3-(methanesulfonyl)pyrrolidin-1-yl]pyridin-2-yl}-7-methyl-6,7-dihydro-2H-furo[2,3-f][1,3]benzodioxole-7-carboxamide] | 6.27 | 91% |
| COC(=O)[C@H]1CN(c2cccc(NC(=O)[C@@]3(C)COc4cc5c(cc43)OC(F)(F)O5)n2)C[C@@H]1c1ccccc1 [Example 112, methyl (3R,4S)-1-(6-{[(7R)-2,2-difluoro-7-methyl-6,7-dihydro-2H-furo[2,3-f][1,3]benzodioxole-7-carbonyl]amino}pyridin-2-yl)-4-phenylpyrrolidine-3-carboxylate] | 6.00 | 131% |
| CC1CN(c2cccc(NC(=O)[C@@]3(C)COc4cc5c(cc43)OC(F)(F)O5)n2)CC1C(=O)O (stereo partly drawn) [Example 116, 1-(6-{[(7R)-2,2-difluoro-7-methyl-6,7-dihydro-2H-furo[2,3-f][1,3]benzodioxole-7-carbonyl]amino}pyridin-2-yl)-4-methylpyrrolidine-3-carboxylic acid] | 5.96 | 136% |
| Cc1cc(C(=O)O)ccc1-c1cccc(NC(=O)[C@@]2(C)COc3cc4c(cc32)OC(F)(F)O4)n1 [Example 120, 4-(6-{[(7R)-2,2-difluoro-7-methyl-6,7-dihydro-2H-furo[2,3-f][1,3]benzodioxole-7-carbonyl]amino}pyridin-2-yl)-3-methylbenzoic acid] | 5.84 | 253% |
| Cc1c(C(=O)O)cccc1-c1cccc(NC(=O)[C@@]2(C)COc3cc4c(cc32)OC(F)(F)O4)n1 [Example 122, 3-(6-{[(7R)-2,2-difluoro-7-methyl-6,7-dihydro-2H-furo[2,3-f][1,3]benzodioxole-7-carbonyl]amino}pyridin-2-yl)-2-methylbenzoic acid] | 5.71 | 173% |

More lines, in order of rising pEC50, values ahead:

| pEC50 | Maximum % activity (%) | SMILES |
| --- | --- | --- |
| 5.52 | 120% | C[C@]1(C(=O)Nc2cccc(N3CCC(CO)(CCl)C3)n2)COc2cc3c(cc21)OC(F)(F)O3 (stereo partly drawn) [Example 110, (7R)—N-{6-[3-(chloromethyl)-3-(hydroxymethyl)pyrrolidin-1-yl]pyridin-2-yl}-2,2-difluoro-7-methyl-6,7-dihydro-2H-furo[2,3-f][1,3]benzodioxole-7-carboxamide] |
| 5.82 | 189% | C[C@]1(C(=O)Nc2cccc(-c3ccc(C(=O)O)cc3F)n2)COc2cc3c(cc21)OC(F)(F)O3 [Example 123, 4-(6-{[(7R)-2,2-difluoro-7-methyl-6,7-dihydro-2H-furo[2,3-f][1,3]benzodioxole-7-carbonyl]amino}pyridin-2-yl)-3-fluorobenzoic acid] |
| 5.86 | 147% | C[C@]1(C(=O)Nc2cccc(N3CC4CCCC4(C(=O)O)C3)n2)COc2cc3c(cc21)OC(F)(F)O3 (stereo partly drawn) [Example 117, 2-(6-{[(7R)-2,2-difluoro-7-methyl-6,7-dihydro-2H-furo[2,3-f][1,3]benzodioxole-7-carbonyl]amino}pyridin-2-yl)hexahydrocyclopenta[c]pyrrole-3a(1H)-carboxylic acid] |
| 5.91 | 123% | C[C@]1(C(=O)Nc2cccc(N3CCCC3)n2)COc2cc3c(cc21)OC(F)(F)O3 [Example 118, (7R)-2,2-difluoro-7-methyl-N-[6-(pyrrolidin-1-yl)pyridin-2-yl]-6,7-dihydro-2H-furo[2,3-f][1,3]benzodioxole-7-carboxamide] |
| 5.93 | 136% | C[C@]1(C(=O)Nc2cccc(N3CCCCC3)n2)COc2cc3c(cc21)OC(F)(F)O3 [Example 119, (7R)-2,2-difluoro-7-methyl-N-[6-(piperidin-1-yl)pyridin-2-yl]-6,7-dihydro-2H-furo[2,3-f][1,3]benzodioxole-7-carboxamide] |
| 6.12 | 98% | C[C@]1(C(=O)Nc2cccc(N3CCC(c4ccc(F)cc4)C3)n2)COc2cc3c(cc21)OC(F)(F)O3 (stereo partly drawn) [Example 114, (7R)-2,2-difluoro-N-{6-[3-(4-fluorophenyl)pyrrolidin-1-yl]pyridin-2-yl}-7-methyl-6,7-dihydro-2H-furo[2,3-f][1,3]benzodioxole-7-carboxamide] |
| 6.13 | 124% | Cc1ccc(NC(=O)[C@@]2(C)COc3cc4c(cc32)OC(F)(F)O4)nc1-c1cccc(S(=O)(=O)NC2CC2)c1 [Example 124, (7R)—N-{6-[3-(cyclopropylsulfamoyl)phenyl]-5-methylpyridin-2-yl}-2,2-difluoro-7-methyl-6,7-dihydro-2H-furo[2,3-f][1,3]benzodioxole-7-carboxamide] |
| 6.24 | 89% | C[C@]1(C(=O)Nc2cccc(N3CCC(S(C)(=O)=O)C3)n2)COc2cc3c(cc21)OC(F)(F)O3 (stereo partly drawn) [Example 109, (7R)-2,2-difluoro-N-{6-[3-(methanesulfonyl)pyrrolidin-1-yl]pyridin-2-yl}-7-methyl-6,7-dihydro-2H-furo[2,3-f][1,3]benzodioxole-7-carboxamide] |
